Results published in ChEMBL document CHEMBL1130277, “Three-dimensional quantitative structure-activity relationships from molecular similarity matrices and genetic neural networks. 2. Applications” (J Med Chem, 1997).

Key:
Leishmania amazonensis = experiment: Inhibition on leishmania mexicana amazonensis.; type: functional, organism-based
[1] = target: GABA-A receptor; anion channel
Description: Inhibition on Benzodiazepine receptor

Row | Structure (SMILES) | IC50 (Leishmania amazonensis) | pIC50 [1]
1 | COc1cc(C2=NCCN2)ccc1OCCCCOc1ccc(C2=NCCN2)cc1OC | 6410 µM | –
2 | COc1cc(C2=NCCN2)ccc1OCCCOc1ccc(C2=NCCN2)cc1OC | 2260 µM | –
3 | CC(C)(C)COc1cc2c3ccccc3nc-2c[nH]1 | – | 7.02
4 | N=C(N)c1ccc(NCCCNc2ccc(C(=N)N)cc2[N+](=O)[O-])c([N+](=O)[O-])c1 | 4830 µM | –
5 | N=C(N)c1ccc(OCCCCCOc2ccc(C(=N)N)cc2[N+](=O)[O-])c([N+](=O)[O-])c1 | 2000 µM | –
6 | N=C(N)c1ccc(NCCCCCNc2ccc(C(=N)N)cc2[N+](=O)[O-])c([N+](=O)[O-])c1 | 1130 µM | –
7 | Cn1c2ccccc2c2c3[nH]c4ccccc4c3ncc21 | – | 5.93
8 | Clc1cccc2[nH]c3c4c5ccccc5nc-4c[nH]c3c12 | – | 6.15
9 | Cc1ccc2[nH]c3c4c5ccccc5nc-4c[nH]c3c2c1 | – | 6.65
10 | N=C(N)c1ccc(OCCOc2ccc(C(=N)N)cc2[N+](=O)[O-])c([N+](=O)[O-])c1 | 50000 µM | –
11 | N=C(N)c1ccc(OCCCCOc2ccc(C(=N)N)cc2[N+](=O)[O-])c([N+](=O)[O-])c1 | 5600 µM | –
12 | CC(C)Oc1cc2c(cn1)[nH]c1ccccc12 | – | 6.29
13 | COc1cc2c(cn1)[nH]c1ccccc12 | – | 6.91
14 | CCOc1cc2c(cn1)[nH]c1ccccc12 | – | 7.62
15 | CCCOc1cc2c(cn1)[nH]c1ccccc12 | – | 7.96
16 | CCCCc1cc2c(cn1)[nH]c1ccccc12 | – | 6.64
17 | O=[N+]([O-])c1cc2c3ccccc3nc-2c[nH]1 | – | 6.9
18 | Cc1ccc2c(c1)[nH]c1c3c4ccccc4nc-3c[nH]c12 | – | 8.1
19 | CCOC(=O)c1cc2c(cn1)Cc1ccccc1-2 | – | 6.17
20 | CCOC(=O)c1cc2c(cn1)nc(O)c1ccccc12 | – | 5.62
21 | COc1cccc2[nH]c3c4c5ccccc5nc-4c[nH]c3c12 | – | 6.6
22 | CC(C)(C)COC(=O)c1cc2c3ccccc3nc-2c[nH]1 | – | 6.12
23 | Cc1cccc2[nH]c3c4c5ccccc5nc-4c[nH]c3c12 | – | 5.16
24 | CC(C)CCOc1cc2c3ccccc3nc-2c[nH]1 | – | 6.37
25 | COC(=O)c1cc2c(cn1)[nH]c1ccccc12 [BETA-CCM] | – | 8.3
26 | O=C1C2C=Nc3ccccc3C2=NN1c1ccccc1 (stereo not given) [CGS-8216] | – | 9.4
27 | Cc1nccc2c1[nH]c1ccccc12 [HARMAN] | – | 4.91
28 | c1ccc2c(c1)[nH]c1cnccc12 [NORHARMANE] | – | 5.79

Now from value to compound:

Row | IC50 (Leishmania amazonensis) | pIC50 [1] | Structure (SMILES)
29 | 4040 µM | – | COc1cc(C2=NCCN2)ccc1OCCCCCOc1ccc(C2=NCCN2)cc1OC
30 | 2710 µM | – | c1cc(C2=NCCN2)ccc1OCCCCOc1ccc(C2=NCCN2)cc1
31 | 1160 µM | – | N=C(N)c1ccc(NCCCCCNc2ccc(C(=N)N)cc2N)c(N)c1
32 | 289 µM | – | N=C(N)c1ccc(NCCCCCCNc2ccc(C(=N)N)cc2)cc1
33 | 3030 µM | – | COc1cc(C(=N)N)ccc1OCCCCCOc1ccc(C(=N)N)cc1OC
34 | 991 µM | – | N=C(N)c1ccc(NCCCCCCNc2ccc(C(=N)N)cc2N)c(N)c1
35 | 1330 µM | – | N=C(N)c1ccc(OCCCCOc2ccc(C(=N)N)cc2Cl)c(Cl)c1
36 | 703 µM | – | N=C(N)c1ccc(OCCCCCOc2ccc(C(=N)N)cc2Cl)c(Cl)c1
37 | 3500 µM | – | N=C(N)c1ccc(OCCCOc2ccc(C(=N)N)cc2N)c(N)c1
38 | 687 µM | – | N=C(N)c1ccc(NCCCNc2ccc(C(=N)N)cc2)cc1
39 | 1790 µM | – | COc1cc(C(=N)N)ccc1OCCCOc1ccc(C(=N)N)cc1OC
40 | 678 µM | – | N=C(N)c1ccc(OCCCCCOc2ccc(C(=N)N)cc2Br)c(Br)c1
41 | 7570 µM | – | N=C(N)c1ccc(OCCCCOc2ccc(C(=N)N)cc2N)c(N)c1
42 | 1720 µM | – | c1cc(C2=NCCN2)ccc1OCCCCCOc1ccc(C2=NCCN2)cc1
43 | 15800 µM | – | N=C(N)c1ccc(OCCOc2ccc(C(=N)N)cc2)cc1
44 | 558 µM | – | N=C(N)c1ccc(NCCCCCNc2ccc(C(=N)N)cc2)cc1

Row | IC50 (Leishmania amazonensis) | pIC50 [1] | Structure (SMILES)
45 | 26200 µM | – | N=C(N)c1ccc(NCCNc2ccc(C(=N)N)cc2N)c(N)c1
46 | 5430 µM | – | N=C(N)c1cccc(OCCCCOc2cccc(C(=N)N)c2)c1
47 | 1040 µM | – | N=C(N)c1cccc(OCCCCCCOc2cccc(C(=N)N)c2)c1
48 | 1590 µM | – | N=C(N)c1ccc(OCCCCOc2ccc(C(=N)N)cc2)cc1
49 | 2130 µM | – | N=C(N)c1cccc(OCCCCCOc2cccc(C(=N)N)c2)c1
50 | 6100 µM | – | N=C(N)c1cccc(OCCCOc2cccc(C(=N)N)c2)c1
51 | 10000 µM | – | COc1cc(C(=N)N)ccc1OCCCCOc1ccc(C(=N)N)cc1OC
52 | 7870 µM | – | N=C(N)c1ccc(NCCCCNc2ccc(C(=N)N)cc2N)c(N)c1
53 | 22600 µM | – | N=C(N)c1ccc(OCCOc2ccc(C(=N)N)cc2N)c(N)c1
54 | 671 µM | – | N=C(N)c1ccc(NCCCCNc2ccc(C(=N)N)cc2)cc1
55 | – | 7.01 | CCCCOc1cc2c(cn1)[nH]c1ccccc12
56 | 1770 µM | – | c1cc(C2=NCCN2)ccc1OCCCOc1ccc(C2=NCCN2)cc1
57 | – | 9.22 | O=C1C2C=Nc3ccccc3C2=NN1c1ccc(Cl)cc1 (stereo not given) [CGS-9896]
58 | 396 µM | – | N=C(N)c1ccc(OCCCCCCOc2ccc(C(=N)N)cc2)cc1 [HEXAMIDINE]
59 | 820 µM | – | N=C(N)c1ccc(OCCCCCOc2ccc(C(=N)N)cc2)cc1 [PENTAMIDINE]
60 | 851 µM | – | N=C(N)c1ccc(OCCCOc2ccc(C(=N)N)cc2)cc1 [PROPAMIDINE]
